The nature of test [1]: FA direct binding of antibiotics/compounds to NBD-lipid II probe. The settings on record: for Effect on FA signal of the NBD-lipid II probe (direct binding, no protein): increasing compound concentrations, probe 0.33 µM; for Kd: antibiotic binding to probe 0.33 µM, 10 mM Tris-HCl pH 7.5, 3% DMSO. The method, then:
Serial dilutions of each antibiotic in 10 mM Tris-HCl pH 7.5 and 3% DMSO were prepared in 384-well plates (30 µL) in triplicates. […] Blank samples without antibiotic were also prepared for background fluorescence estimation. […] The data were analysed as described above with [R] and [RL] are, respectively, the equilibrium concentration of the compound and the compound-probe complex.

Test [2] deals with T1, PBP1b (Escherichia coli, UniProt P02919). Briefly: Fluorescence anisotropy (FA) direct binding of NBD-lipid II probe to PBP1b. On the set-up: made in house; species or system E. coli. The settings on record: probe 0.33 µM. The procedure: (§1) Fluorescent anisotropy (FA) experiments were performed in a black 384-well plate (Greiner Bio-One Polystyrene Non-Binding Flat Bottom) in triplicates. Serial dilutions of the protein (PBP1bγ, FtsW, FtsW-PBP3 or MurJ) in the appropriate buffer and the NBD-lipid II probe was added at a 0.33 µM final concentration. FtsN was used as a negative control under the same conditions. […] Fluorescence polarization (FP) and anisotropy (A) values were calculated using the equations FP = (I|| − G·I┴)/I||+ G·I┴) and A = 2· FP/3-FP respectively, where I|| is the fluorescence intensity of emitted light parallel to excitation, I┴ is the fluorescence intensity of emitted light perpendicular to excitation, and G is the correction factor that correct for instrument bias. The G factor is experimentally determined using the probe alone. […] For Kd determination, the fluorescence anisotropy data were analysed by nonlinear curve fitting to the Eq. (1) using GraphPad Prism 6.0 software[27].1 (A−Amin)/(Amax−Amin)=[RL]=(Kd+[R]+[L])−[(Kd+R]+[L])^2−4[R][L]]^1/2 Where A, Amin, Amax are the observed, the minimum and the maximum anisotropy, respectively, and [R], [L] and [RL] are the equilibrium concentration of the protein, the probe; and the protein-probe complex, respectively; Kd is the dissociation constant between the protein and the probe.
In general terms: Fluorescence polarisation rises when a labelled molecule tumbles more slowly, as on binding a larger partner.

Test [3] concerns the target T2, MurJ (Escherichia coli, UniProt P0AF16). Briefly: FA direct binding of NBD-lipid II probe to MurJ. On the set-up: made in house; species or system E. coli. The settings on record: probe 0.33 µM. The procedure:
as §1

A further test deals with T3, FtsN (Escherichia coli, UniProt P29131).
T3 construct: made in house
In words: FA direct binding of NBD-lipid II probe to FtsN (negative control). The settings on record: FtsN as negative control. The method, then: as §1

For test [4], the target named is T4, FtsW (Escherichia coli, UniProt P0ABG4). In words: FA direct binding of NBD-lipid II probe to FtsW. On the set-up: made in house; species or system E. coli. The settings on record: probe 0.33 µM. The procedure: as §1
Test [5] deals with T5, FtsW-PBP3 (Escherichia coli, UniProt P0ABG4). In words: FA direct binding of NBD-lipid II probe to FtsW-PBP3 complex. On the set-up: made in house; species or system E. coli. The settings on record: probe 0.33 µM. The procedure:
as §1

For test [6] the following is noted: read-out: Kd (Lipid II), values from the literature, cited from earlier work.
Test [7] has as its target T4, FtsW. In words: FA competition assay, FtsW:NBD-lipid II. The settings on record: read-out: Ki values (unlabelled-Lipid II); displacement of probe (0.33 µM) from FtsW (~1 µM).
Description: (§2) Fixed concentrations of NBD-lipid II (0.33 µM) and proteins (~1 µM, 50–80% FA saturation[29]) were used. Serial dilutions of each antibiotic,unlabelled lipid II, or control compounds were prepared in 384-well plates in triplicates. Blank samples without proteins were also prepared for background fluorescence estimation. The mixtures (30 µL) were allowed to reach equilibrium for 20 min at room temperature with gentle shaking and the FA signals were recorded at 21 °C using an Infinite F Plex (Tecan, Männedorf, Switzerland) microplate reader equipped with polarization filters with excitation and emission wavelengths at 485 nm and 535 nm respectively. The data were plotted FA in millianisotropy units (mA) as a function of test compound concentration in µM. For the analysis of the completion data, fluorescence anisotropy values were fitted to the Eq. (3) using GraphPad Prism 6.0 software[30].3 [RL]=[R]/[1+Kd/[L](1+[C]/)Ki] Where [RL] is concentration of the receptor-probe complex; [R] is the concentration of the protein; [L] is the concentration of the probe; [C] is the concentration of test compound; Kd is the dissociation constant between the receptor and the probe (determined above); Ki is dissociation constant between the test compound and its target.
Test [8] deals with T5, FtsW-PBP3. Briefly: FA competition assay, FtsW-PBP3:NBD-lipid II. The settings on record: read-out: Ki values (unlabelled-Lipid II); displacement of probe (0.33 µM) from FtsW-PBP3 (~1 µM).
Description: as §2
The subject of test [9] is PBP1b. Also noted: method as in Terrak, M. et al. Mol. Microbiol. 34 (1999). The settings on record: ref Terrak, M. et al. Mol. Microbiol. 34 (1999), read-out: Km (Lipid II), values from the literature, cited from earlier work.
Test [10] addresses MurJ. Also noted: method as in Bolla, J. R. et al. Nat. Chem. 10 (2018). The settings on record: native mass spectrometry, ref Bolla, J. R. et al. Nat. Chem. 10 (2018), read-out: Kd (Lipid II), values from the literature; cited from earlier work.
The target in test [11] is T2, MurJ. Briefly: FA competition assay, MurJ:NBD-lipid II. The settings on record: read-out: Ki values (unlabelled-Lipid II); displacement of probe (0.33 µM) from MurJ (~1 µM).
Description: as §2
The target in test [12] is T1, PBP1b. Briefly: FA competition assay, PBP1b:NBD-lipid II. The settings on record: read-out: Ki values (unlabelled-Lipid II); displacement of probe (0.33 µM) from PBP1b (~1 µM).
Description: as §2
For test [13] the following is noted: ref Lo, M. C. et al. J. Am. Chem. Soc. 122 (2000); read-out: IC50 (Lipid II), values from the literature; cited from earlier work.

Consider eight compounds from paper PMC7156629, “Fluorescence anisotropy assays for high throughput screening of compounds binding to lipid II, PBP1b, FtsW and MurJ” (Scientific Reports, 2020).

Entries after “also recorded” stand apart in the source; their conditions may differ. Where two headings read alike, the source gives them in different places.

For orientation: Kd means the constant that tells how readily two partners part at equilibrium. As a reminder, the Ki is a measure of affinity in units of concentration, obtained from inhibition or displacement. As a reminder, the Km is the concentration of substrate that gives half-maximal velocity. Broadly, the IC50 is the concentration needed to halve the response being measured.

T5 sequence (P0ABG4 whole entry): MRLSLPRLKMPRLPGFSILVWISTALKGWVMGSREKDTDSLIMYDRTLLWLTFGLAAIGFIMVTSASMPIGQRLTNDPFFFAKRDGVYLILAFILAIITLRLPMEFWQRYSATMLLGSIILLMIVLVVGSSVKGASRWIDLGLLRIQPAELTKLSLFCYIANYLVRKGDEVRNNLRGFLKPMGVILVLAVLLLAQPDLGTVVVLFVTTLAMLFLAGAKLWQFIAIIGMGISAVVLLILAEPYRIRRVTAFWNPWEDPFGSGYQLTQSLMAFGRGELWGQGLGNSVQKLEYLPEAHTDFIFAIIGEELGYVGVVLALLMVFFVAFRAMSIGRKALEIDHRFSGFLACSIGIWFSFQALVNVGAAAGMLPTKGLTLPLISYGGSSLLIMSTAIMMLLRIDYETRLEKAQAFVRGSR
T5 sequence (P0AD68 1-577, further chain): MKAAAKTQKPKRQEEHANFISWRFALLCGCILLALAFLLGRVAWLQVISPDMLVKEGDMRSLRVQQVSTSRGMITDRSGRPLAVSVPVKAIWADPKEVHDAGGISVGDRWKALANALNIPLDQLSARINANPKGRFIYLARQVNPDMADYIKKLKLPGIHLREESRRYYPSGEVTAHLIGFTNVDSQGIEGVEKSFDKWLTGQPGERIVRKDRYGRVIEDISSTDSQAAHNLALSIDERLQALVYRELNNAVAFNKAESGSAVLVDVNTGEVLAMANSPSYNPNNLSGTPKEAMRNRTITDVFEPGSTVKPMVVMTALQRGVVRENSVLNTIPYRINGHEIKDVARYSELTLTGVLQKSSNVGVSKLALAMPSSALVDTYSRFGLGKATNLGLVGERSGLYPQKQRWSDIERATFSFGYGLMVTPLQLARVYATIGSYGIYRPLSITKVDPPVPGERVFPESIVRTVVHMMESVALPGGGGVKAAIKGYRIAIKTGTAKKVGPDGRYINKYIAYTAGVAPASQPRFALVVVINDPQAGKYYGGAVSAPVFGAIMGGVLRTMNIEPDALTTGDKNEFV
T4 sequence (P0ABG4 whole entry): as the sequence (P0ABG4 whole entry) above
T1 sequence (P02919 46-844): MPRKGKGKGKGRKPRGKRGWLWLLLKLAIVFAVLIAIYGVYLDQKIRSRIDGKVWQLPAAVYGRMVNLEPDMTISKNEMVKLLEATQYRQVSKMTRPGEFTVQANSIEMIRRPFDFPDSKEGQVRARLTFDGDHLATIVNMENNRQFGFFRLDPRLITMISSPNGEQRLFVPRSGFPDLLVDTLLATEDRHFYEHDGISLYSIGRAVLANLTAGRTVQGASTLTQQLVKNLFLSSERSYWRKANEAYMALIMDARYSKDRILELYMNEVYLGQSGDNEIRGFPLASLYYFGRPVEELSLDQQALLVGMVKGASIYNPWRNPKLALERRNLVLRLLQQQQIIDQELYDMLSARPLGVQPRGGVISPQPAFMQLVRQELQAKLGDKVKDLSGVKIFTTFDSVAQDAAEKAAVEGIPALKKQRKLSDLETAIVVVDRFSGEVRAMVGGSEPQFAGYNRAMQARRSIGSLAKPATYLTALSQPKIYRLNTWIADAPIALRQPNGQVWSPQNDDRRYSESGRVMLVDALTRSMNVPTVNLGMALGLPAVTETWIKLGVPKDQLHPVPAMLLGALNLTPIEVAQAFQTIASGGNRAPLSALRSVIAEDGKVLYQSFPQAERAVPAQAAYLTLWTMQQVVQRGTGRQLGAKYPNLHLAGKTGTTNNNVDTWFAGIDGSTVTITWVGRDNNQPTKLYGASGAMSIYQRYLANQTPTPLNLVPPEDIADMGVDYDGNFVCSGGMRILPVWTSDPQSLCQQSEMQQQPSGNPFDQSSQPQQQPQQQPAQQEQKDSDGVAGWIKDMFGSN
T2 sequence (P0AF16 whole entry): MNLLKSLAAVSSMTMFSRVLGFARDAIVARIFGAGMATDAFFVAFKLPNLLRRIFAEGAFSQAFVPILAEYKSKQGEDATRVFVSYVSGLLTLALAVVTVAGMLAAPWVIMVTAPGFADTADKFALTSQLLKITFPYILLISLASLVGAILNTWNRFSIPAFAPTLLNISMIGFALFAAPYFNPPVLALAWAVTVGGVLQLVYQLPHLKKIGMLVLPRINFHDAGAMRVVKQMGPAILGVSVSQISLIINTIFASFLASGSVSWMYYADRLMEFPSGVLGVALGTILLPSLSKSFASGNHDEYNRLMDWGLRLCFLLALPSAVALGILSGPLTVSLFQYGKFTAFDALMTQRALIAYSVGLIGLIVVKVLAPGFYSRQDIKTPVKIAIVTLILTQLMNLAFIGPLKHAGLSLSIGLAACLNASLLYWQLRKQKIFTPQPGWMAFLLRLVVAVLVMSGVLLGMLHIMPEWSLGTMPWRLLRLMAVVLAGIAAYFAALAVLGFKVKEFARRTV
T3 sequence (P29131 whole entry): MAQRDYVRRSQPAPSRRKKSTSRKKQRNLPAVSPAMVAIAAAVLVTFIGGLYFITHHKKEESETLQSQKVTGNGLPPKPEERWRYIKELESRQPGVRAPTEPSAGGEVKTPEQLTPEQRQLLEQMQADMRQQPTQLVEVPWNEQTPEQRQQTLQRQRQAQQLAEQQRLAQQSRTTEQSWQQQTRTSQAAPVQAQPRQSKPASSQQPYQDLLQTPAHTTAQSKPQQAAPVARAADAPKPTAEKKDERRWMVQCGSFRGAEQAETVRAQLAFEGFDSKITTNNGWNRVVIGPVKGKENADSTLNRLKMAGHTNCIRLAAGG

As for `CC1(C)S[C@@H]2[C@H](NC(=O)[C@H](N)c3ccccc3)C(=O)N2[C@H]1C(=O)O` [Ampicillin], the “Effect on FA signal of the NBD-lipid II probe (direct binding, no protein)” value (“Effect … (direct binding, no protein)” below) in test [1] was “no significant effect on the FA of the probe”; in test [1] (listed as ampicillin) it was “do not bind to the probe”.

As to `CC(=O)N[C@H]1[C@H](O[C@H]2[C@H](O[C@H](C)C(=O)N[C@@H](C)C(=O)N[C@H](CCC(=O)N[C@@H](CCCCNc3ccc([N+](=O)[O-])c4nonc34)C(=O)N[C@H](C)C(=O)N[C@H](C)C(=O)O)C(=O)O)[C@@H](NC(C)=O)[C@@H](OP(=O)(O)OP(=O)(O)OC/C=C(/C)CC/C=C(/C)CC/C=C(/C)CC/C=C(/C)CC/C=C(/C)CC/C=C(/C)CC/C=C(/C)CC/C=C(/C)CC/C=C(\C)CC/C=C(\C)CCC=C(C)C)O[C@@H]2CO)O[C@H](CO)[C@@H](O)[C@@H]1O` [NBD-lipid II, Nitrobenzoxadiazole (NBD)-labelled Lipid II], the Kd on PBP1b [2] was found to be 0.5 ± 0.2 µM; on MurJ [3] it was 1.1 ± 0.3 µM; on FtsW [4], 0.3 ± 0.1 µM; on FtsW-PBP3 [5] it was 0.3 ± 0.1 µM. The “Effect of FtsN on FA of the probe” value on FtsN is recorded as “had no effect on the FA of the probe”.

As for `CN[C@H](CC(C)C)C(=O)N[C@H]1C(=O)N[C@@H](CC(N)=O)C(=O)N[C@H]2C(=O)N[C@H]3C(=O)N[C@H](C(=O)N[C@H](C(=O)O)c4cc(O)cc(O)c4-c4cc3ccc4O)[C@H](O)c3ccc(c(Cl)c3)Oc3cc2cc(c3O[C@@H]2O[C@H](CO)[C@@H](O)[C@H](O)[C@H]2O[C@H]2C[C@](C)(N)[C@H](O)[C@H](C)O2)Oc2ccc(cc2Cl)[C@H]1O` [Vancomycin, vancomycin], in [1], binding was characterised by a dissociation constant (Kd) of 0.3 ± 0.1 µM and the “Effect … (direct binding, no protein)” value is on record as “induced an increase of FA”. The Kd in test [6] (ref Münch, D. & Sahl, H.-G. Biochim. Biophys. Acta 1848 (2015)) is 0.5 µM.

On to `C=C(C/C=C(\C)CCC=C(C)C)CCC(C)(C)/C=C/CC/C(C)=C/CO[C@@H](COP(=O)(O)O[C@H]1O[C@H](C(N)=O)[C@@](C)(O)[C@H](OC(N)=O)[C@H]1O[C@@H]1O[C@H](CO[C@@H]2O[C@H](CO)[C@@H](O)[C@H](O)[C@H]2O)[C@@H](O[C@@H]2O[C@H](C)[C@@H](O[C@@H]3O[C@H](C(=O)NC4=C(O)CCC4=O)[C@H](O)[C@H](O)[C@H]3O)[C@H](O)[C@H]2NC(C)=O)[C@H](O)[C@H]1NC(C)=O)C(=O)O` [moenomycin A, Moenomycin A], for which the “Effect … (direct binding, no protein)” value is on record as “did not significantly affect the FA signal” in test [1] and “no effect on the FA of the probe” in test [1] (listed as Moenomycin).

Turning to `N[C@@H](Cc1c[nH]c2ccccc12)C(=O)O` [tryptophan], the “Effect … (direct binding, no protein)” value in test [1] is listed as “do not bind to the probe; also recorded: no significant effect on the FA of the probe”.

For `CC(=O)N[C@H]1[C@H](O[C@H]2[C@H](O[C@H](C)C(=O)N[C@@H](C)C(=O)N[C@H](CCC(=O)N[C@@H](CCCCN)C(=O)N[C@H](C)C(=O)N[C@H](C)C(=O)O)C(=O)O)[C@@H](NC(C)=O)[C@@H](OP(=O)(O)OP(=O)(O)OC/C=C(/C)CC/C=C(/C)CC/C=C(/C)CC/C=C(/C)CC/C=C(/C)CC/C=C(/C)CC/C=C(/C)CC/C=C(/C)CC/C=C(\C)CC/C=C(\C)CCC=C(C)C)O[C@@H]2CO)O[C@H](CO)[C@@H](O)[C@@H]1O` [unlabelled lipid II, undecaprenyl-pyrophosphoryl-MurNAc(pentapeptide)-(beta-1,4)-GlcNAc], the Ki came to 5.9 ± 1.8 µM on FtsW [7], 6.8 ± 1 µM at FtsW-PBP3 [8], 4.6 ± 0.8 µM at MurJ [11] and 1.4 ± 0.2 µM at PBP1b [12]. Also, the results for the Km in the test with PBP1b [9] (listed as Lipid II) and in the test on PBP1b [9] (listed as lipid II) were 1.8 ± 0.8 µM and about 2 µM, respectively. The “Effect … (direct binding, no protein)” value in [1] is listed as “no direct effect on the FA of the probe”; in test [1] (listed as unlabeled lipid II), “did not significantly affect the FA signal”. Also, the Kd at MurJ [10] is 2.9 µM.

“nisin (ITSISLCTPGCKTGALMGCNMKTATCHCSIHVSK; not fully specified; Lantibiotic nisin-A; UniProt P13068 24-57, looked up)”: in [1], the equilibrium dissociation constant (Kd) stood at 0.3 ± 0.1 µM and the “Effect … (direct binding, no protein)” value is on record as “induced an increase of FA”. The Kd in test [6] (ref 'T Hart, P. et al. Biochemistry 55 (2016)) is 0.0146 to 0.05 µM.

Regarding ramoplanin, in [13], the IC50 is 0.3 µM. Also, in test [1], binding was put at a Kd of 0.23 ± 0.05 µM and the “Effect … (direct binding, no protein)” value was “induced an increase of FA”.
